Experimental data as given in ChEMBL document CHEMBL1127655, “The stabilization of DNA topoisomerase II cleavable complex by mitonafide analogs” (Bioorg Med Chem Lett, 1994).

What was measured:
Assay type in all cases: nucleic-acid assay
Conditions in all cases: Bos taurus
[1] = test system: Calf thymus DNA; assay: Calf thymus DNA binding affinity compared to ethidium bromide
[2] = test system: Nucleic Acid; assay: DNA binding affinity by a decrease in fluorescence of an ethidium bromide calf thymus DNA solution; (25%)
[3] = test system: Nucleic Acid; assay: DNA binding affinity by a decrease in fluorescence of an ethidium bromide calf thymus DNA solution; (36%)
[4] = test system: Nucleic Acid; assay: DNA binding affinity by a decrease in fluorescence of an ethidium bromide calf thymus DNA solution; (41%)
[5] = test system: Nucleic Acid; assay: DNA binding affinity by a decrease in fluorescence of an ethidium bromide calf thymus DNA solution (0%)
[6] = test system: Nucleic Acid; assay: DNA binding affinity by a decrease in fluorescence of an ethidium bromide calf thymus DNA solution; (39%)
[7] = test system: Nucleic Acid; assay: DNA binding affinity by a decrease in fluorescence of an ethidium bromide calf thymus DNA solution; (34%)
[8] = test system: Nucleic Acid; assay: DNA binding affinity by a decrease in fluorescence of an ethidium bromide calf thymus DNA solution; (10%)
[9] = test system: Nucleic Acid; assay: DNA binding affinity by a decrease in fluorescence of an ethidium bromide calf thymus DNA solution; (12%)
[10] = test system: Nucleic Acid; assay: DNA binding affinity by a decrease in fluorescence of an ethidium bromide calf thymus DNA solution; (33%)

| Compound | C50 [1] [µM] | also measured |
| --- | --- | --- |
| CNCCN1C(=O)c2cccc3c([N+](=O)[O-])ccc(c23)C1=O | 19 |  |
| CNCCN1C(=O)c2cccc3cc([N+](=O)[O-])cc(c23)C1=O | 14 |  |
| O=C1c2cccc3cc([N+](=O)[O-])cc(c23)C(=O)N1CCO |  | C50 [2]: > 100 µM |
| CN(C)CCN1C(=O)c2cccc3cc([N+](=O)[O-])cc(c23)C1=O | 11 |  |
| CN(C)CCCN1C(=O)c2cccc3c([N+](=O)[O-])ccc(c23)C1=O |  | C50 [3]: > 100 µM |
| CCN(CC)CCN1C(=O)c2cccc3cccc(c23)C1=O | 100 |  |
| CCN(CC)CCN1C(=O)c2cccc3cc([N+](=O)[O-])cc(c23)C1=O | 35 |  |
| NCCN1C(=O)c2cccc3c([N+](=O)[O-])ccc(c23)C1=O | 17 |  |
| CCN(CC)CCN1C(=O)c2cccc3c([N+](=O)[O-])ccc(c23)C1=O | 28 |  |
| CNCCN1C(=O)c2cccc3cccc(c23)C1=O |  | C50 [4]: > 100 µM |
| O=C1c2cccc3c([N+](=O)[O-])ccc(c23)C(=O)N1CCc1ccccn1 |  | C50 [5]: > 100 µM |
| O=C1c2cccc3cc([N+](=O)[O-])cc(c23)C(=O)N1CCN1CCCC1 | 10 |  |
| CN(C)CCCN1C(=O)c2cccc3cc([N+](=O)[O-])cc(c23)C1=O | 16 |  |
| O=C1c2cccc3cc([N+](=O)[O-])cc(c23)C(=O)N1CCN1CCNCC1 |  | C50 [6]: > 100 µM |
| O=C1c2cccc3c([N+](=O)[O-])ccc(c23)C(=O)N1CCO |  | C50 [7]: > 100 µM |
| O=C1c2cccc3cc([N+](=O)[O-])cc(c23)C(=O)N1CCc1ccccn1 |  | C50 [8]: > 100 µM |
| O=C1c2cccc3cccc(c23)C(=O)N1CCO |  | C50 [9]: > 100 µM |
| CN(C)CCN1C(=O)c2cccc3cccc(c23)C1=O | 100 |  |
| NCCN1C(=O)c2cccc3cccc(c23)C1=O | 50 |  |
| CN(C)CCN1C(=O)c2cccc3c([N+](=O)[O-])ccc(c23)C1=O |  | C50 [10]: > 100 µM |
| O=C1c2cccc3c([N+](=O)[O-])ccc(c23)C(=O)N1CCN1CCCC1 | 11 |  |
